{"source": "patent US10322110B2", "about": "“Imidazole-based antimicrobial agents” (priority 2014, dated 2019)", "format_in_all_cases": "cell-based", "key": {"[1]": {"test_system": "Streptococcus pneumoniae (Chester, ATCC49619)", "assay": "broth microdilution MIC assay, Streptococcus pneumoniae", "conditions": "MIC100 class score, 24 h"}, "[2]": {"test_system": "Staphylococcus aureus MRSA (COL)", "assay": "broth microdilution MIC assay, Staphylococcus aureus MRSA (COL)", "conditions": "for Antibacterial activity Staphylococcus aureus (MRSA): MIC100 class score, broth microdilution; for MIC: Staphylococcus aureus, MRSA"}, "[3]": {"test_system": "Staphylococcus epidermidis (PCI 1200, ATCC12228)", "assay": "broth microdilution MIC assay, Staphylococcus epidermidis", "conditions": "ATCC12228, read-out: Antibacterial activity SE (Staphylococcus epidermidis)"}, "[4]": {"test_system": "penicillin-, erythromycin- and tetracycline-resistant Streptococcus pneumoniae (ATCC 700677), ARSP", "assay": "microbe, parasite or virus in culture"}, "[5]": {"test_system": "Human hepatocytes (HepaRG cells)", "assay": "human cytotoxicity assay in vitro (CellTiter-Glo), hepatocytes", "conditions": "cytotoxicity class"}, "[6]": {"test_system": "Staphylococcus aureus MSSA (Newman)", "assay": "broth microdilution MIC assay, Staphylococcus aureus MSSA (Newman)", "conditions": "for Antibacterial activity Staphylococcus aureus (MSSA): MIC100 class score, broth microdilution; for MIC: Staphylococcus aureus"}, "[7]": {"test_system": "Bacillus subtilis (Marburg strain, ATCC6051)", "assay": "microbe, parasite or virus in culture", "conditions": "ATCC6051, read-out: Antibacterial activity BS (Bacillus substilis)"}, "[8]": {"conditions": "read-out: Antibacterial activity MRSA (Staphylococcus aureus MRSA)"}, "[9]": {"conditions": "ATCC700677, read-out: Antibacterial activity ARSP (multi-drug resistant-SP)"}, "[10]": {"conditions": "read-out: Antibacterial activity MSSA (Staphylococcus aureus MSSA)"}, "[11]": {"conditions": "ATCC700677, MIC activity class, read-out: Antibacterial activity ARSP (multi-drug resistant-SP)"}, "[12]": {"conditions": "24 h, read-out: Antibacterial activity Staphylococcus aureus (MRSA)"}, "[13]": {"conditions": "24 h, read-out: Antibacterial activity Staphylococcus aureus (MSSA)"}}, "note": "Like-named read-outs stand apart in the source and are kept apart here.", "data": [{"smiles": "Cc1[nH]c(-c2ccc(-c3ccc(C(F)(F)F)c(Cl)c3)o2)nc1-c1ccc(F)cc1", "note": "[Compound 49]", "values": [{"measurement": "Antibacterial activity Streptococcus pneumoniae", "setting": "[1]", "value": "3 (MIC100 of 2-5 μg/ml)"}, {"measurement": "Antibacterial activity Staphylococcus aureus (MRSA)", "setting": "[2]; 24 h", "value": "2 (MIC100 of 11-201 μg/ml)"}, {"measurement": "MIC", "setting": "[2]; [8]", "value": "3 to 10", "unit": "µg/mL"}, {"measurement": "MIC", "setting": "[3]", "value": "11 to 201", "unit": "µg/mL"}, {"measurement": "MIC", "setting": "[4]; [9]", "value": "< 1", "unit": "µg/mL"}, {"measurement": "cytotoxicity cell line H (hepatocytes)", "setting": "[5]", "value": 3}, {"measurement": "Antibacterial activity Staphylococcus aureus (MSSA)", "setting": "[6]; 24 h", "value": "3 (MIC100 of 3-10 μg/ml)"}, {"measurement": "MIC", "setting": "[6]; [10]", "value": "3 to 10", "unit": "µg/mL"}]}, {"smiles": "Cc1nc(-c2ccc(-c3ccc(F)cc3F)o2)[nH]c1-c1ccc(O)cc1", "note": "[Compound 80]", "values": [{"measurement": "Antibacterial activity Streptococcus pneumoniae", "setting": "[1]", "value": "3 (MIC100 of 2-5 μg/ml)"}, {"measurement": "Antibacterial activity Staphylococcus aureus (MRSA)", "setting": "[2]; 24 h", "value": "2 (MIC100 of 11-201 μg/ml)"}, {"measurement": "Antibacterial activity Staphylococcus aureus (MSSA)", "setting": "[6]; 24 h", "value": "3 (MIC100 of 3-10 μg/ml)"}]}, {"smiles": "Cc1ccccc1-c1ccc(-c2nc(-c3ccccc3)c(C)[nH]2)o1", "note": "[Compound 61]", "values": [{"measurement": "cytotoxicity cell line H (hepatocytes)", "setting": "[5]", "value": 3}]}, {"smiles": "Cc1[nH]c(-c2cc(C)n(-c3cccc(C(F)(F)F)c3)c2C)nc1-c1ccccc1", "note": "[Compound 36]", "values": [{"measurement": "Antibacterial activity Streptococcus pneumoniae", "setting": "[1]", "value": "3 (MIC100 of 2-5 μg/ml)"}, {"measurement": "Antibacterial activity Staphylococcus aureus (MRSA)", "setting": "[2]; 24 h", "value": "2 (MIC100 of 11-201 μg/ml)"}, {"measurement": "MIC", "setting": "[2]; [8]", "value": "11 to 201", "unit": "µg/mL"}, {"measurement": "cytotoxicity cell line H (hepatocytes)", "setting": "[5]", "value": 3}]}, {"smiles": "Cc1[nH]c(-c2ccc(-c3cccc(C(F)(F)F)c3)o2)nc1-c1ccc(F)cc1", "note": "[Compound 38]", "values": [{"measurement": "Antibacterial activity Streptococcus pneumoniae", "setting": "[1]", "value": "3 (MIC100 of 2-5 μg/ml)"}, {"measurement": "MIC", "setting": "[2]; [8]", "value": "1 to 3", "unit": "µg/mL"}, {"measurement": "MIC", "setting": "[3]", "value": "3 to 10", "unit": "µg/mL"}, {"measurement": "MIC", "setting": "[4]; [9]", "value": "< 1", "unit": "µg/mL"}, {"measurement": "MIC", "setting": "[6]; [10]", "value": "1 to 3", "unit": "µg/mL"}]}, {"smiles": "Cc1[nH]c(-c2ccc(-c3ccc(C(F)(F)F)cc3)s2)nc1-c1ccccc1", "note": "[Compound 46]", "values": [{"measurement": "Antibacterial activity Streptococcus pneumoniae", "setting": "[1]", "value": "3 (MIC100 of 2-5 μg/ml)"}, {"measurement": "MIC", "setting": "[4]; [9]", "value": "2 to 5", "unit": "µg/mL"}, {"measurement": "Antibacterial activity Staphylococcus aureus (MSSA)", "setting": "[6]; 24 h", "value": "2 (MIC100 of 11-201 μg/ml)"}, {"measurement": "MIC", "setting": "[6]; [10]", "value": "11 to 201", "unit": "µg/mL"}]}, {"smiles": "Cc1[nH]c(-c2coc(-c3ccccc3C(F)(F)F)c2)nc1-c1ccccc1", "note": "[Compound 72]", "values": [{"measurement": "Antibacterial activity Streptococcus pneumoniae", "setting": "[1]", "value": "2 (MIC100 of 6-10 μg/ml)"}, {"measurement": "cytotoxicity cell line H (hepatocytes)", "setting": "[5]", "value": 3}]}, {"smiles": "FC(F)(F)Oc1ccccc1-c1ccc(-c2nc(-c3ccccc3Cl)c[nH]2)o1", "note": "[Compound 67]", "values": [{"measurement": "Antibacterial activity Streptococcus pneumoniae", "setting": "[1]", "value": "3 (MIC100 of 2-5 μg/ml)"}, {"measurement": "MIC", "setting": "[3]", "value": "11 to 201", "unit": "µg/mL"}, {"measurement": "MIC", "setting": "[4]; [9]", "value": "6 to 10", "unit": "µg/mL"}, {"measurement": "cytotoxicity cell line H (hepatocytes)", "setting": "[5]", "value": 2}]}, {"smiles": "Cc1nc(-c2ccc(-c3ccccc3N(C)C)o2)[nH]c1-c1ccccc1", "note": "[Compound 71]", "values": [{"measurement": "cytotoxicity cell line H (hepatocytes)", "setting": "[5]", "value": 3}]}, {"smiles": "Cc1nc(-c2ccc(-c3ccccc3C(F)(F)F)o2)[nH]c1-c1ccccc1Cl", "note": "[Compound 20]", "values": [{"measurement": "MIC", "setting": "[4]; [11]", "value": "2 to 5", "unit": "µg/mL"}, {"measurement": "MIC", "setting": "[7]", "value": "20 to 50", "unit": "µg/mL"}, {"measurement": "cytotoxicity cell line H (hepatocytes)", "setting": "[5]", "value": 3}, {"measurement": "MIC", "setting": "[6]; [10]", "value": "20 to 50", "unit": "µg/mL"}]}, {"smiles": "Cc1[nH]c(-c2ccc(-c3ccccc3OC(F)(F)F)o2)nc1-c1ccc(C(F)(F)F)cc1", "note": "[Compound 26]", "values": [{"measurement": "Antibacterial activity Streptococcus pneumoniae", "setting": "[1]", "value": "3 (MIC100 of 2-5 μg/ml)"}, {"measurement": "MIC", "setting": "[4]; [9]", "value": "6 to 10", "unit": "µg/mL"}]}, {"smiles": "Cc1nc(-c2ccc(-c3cccc(Cl)c3)o2)[nH]c1-c1ccccc1", "note": "[Compound 4]", "values": [{"measurement": "MIC", "setting": "[2]; [12]", "value": "11 to 201", "unit": "µg/mL"}, {"measurement": "MIC", "setting": "[2]; [8]", "value": "11 to 201", "unit": "µg/mL"}, {"measurement": "MIC", "setting": "[3]", "value": "3 to 10", "unit": "µg/mL"}, {"measurement": "MIC", "setting": "[6]; [13]", "value": "1 to 3", "unit": "µg/mL"}, {"measurement": "MIC", "setting": "[6]; [10]", "value": "1 to 3", "unit": "µg/mL"}]}, {"smiles": "Cc1cccc(C)c1-c1ccc(-c2nc(-c3ccccc3)c(C)[nH]2)o1", "note": "[Compound 62]", "values": [{"measurement": "cytotoxicity cell line H (hepatocytes)", "setting": "[5]", "value": 3}]}, {"smiles": "Cc1[nH]c(-c2cc(C)n(-c3ccc(F)cc3F)c2C)nc1-c1ccccc1", "note": "[Compound 9]", "values": [{"measurement": "Antibacterial activity Streptococcus pneumoniae", "setting": "[1]", "value": "2 (MIC100 of 6-10 μg/ml)"}, {"measurement": "MIC", "setting": "[2]; [8]", "value": "20 to 50", "unit": "µg/mL"}, {"measurement": "cytotoxicity cell line H (hepatocytes)", "setting": "[5]", "value": 3}]}, {"smiles": "Cc1nc(-c2ccc(-c3cc(F)ccc3C(F)(F)F)o2)[nH]c1-c1ccccc1", "note": "[Compound 31a]", "values": [{"measurement": "MIC", "setting": "[4]; [11]", "value": "2 to 5", "unit": "µg/mL"}, {"measurement": "MIC", "setting": "[7]", "value": "20 to 50", "unit": "µg/mL"}, {"measurement": "cytotoxicity cell line H (hepatocytes)", "setting": "[5]", "value": 2}, {"measurement": "MIC", "setting": "[6]; [13]", "value": "20 to 50", "unit": "µg/mL"}, {"measurement": "MIC", "setting": "[6]; [10]", "value": "20 to 50", "unit": "µg/mL"}]}, {"smiles": "Cc1ccc(-c2ccc(-c3nc(-c4ccccc4)c(C)[nH]3)o2)cc1", "note": "[Compound 52]", "values": [{"measurement": "MIC", "setting": "[2]; [12]", "value": "20 to 50", "unit": "µg/mL"}, {"measurement": "cytotoxicity cell line H (hepatocytes)", "setting": "[5]", "value": 3}]}, {"smiles": "Cc1[nH]c(-c2ccc(-c3ccccc3C(F)(F)F)o2)nc1-c1ccccc1", "note": "[Compound 17]", "values": [{"measurement": "MIC", "setting": "[2]; [12]", "value": "1 to 3", "unit": "µg/mL"}, {"measurement": "MIC", "setting": "[2]; [8]", "value": "1 to 3", "unit": "µg/mL"}, {"measurement": "MIC", "setting": "[3]", "value": "20 to 50", "unit": "µg/mL"}, {"measurement": "MIC", "setting": "[7]", "value": "1 to 3", "unit": "µg/mL"}, {"measurement": "cytotoxicity cell line H (hepatocytes)", "setting": "[5]", "value": 3}, {"measurement": "MIC", "setting": "[6]; [13]", "value": "3 to 10", "unit": "µg/mL"}, {"measurement": "MIC", "setting": "[6]; [10]", "value": "3 to 10", "unit": "µg/mL"}]}, {"smiles": "CCCc1[nH]c(-c2ccc(-c3ccc(O)cc3C(F)(F)F)o2)nc1C", "note": "[Compound 110]", "values": [{"measurement": "Antibacterial activity Streptococcus pneumoniae", "setting": "[1]", "value": "3 (MIC100 of 2-5 μg/ml)"}, {"measurement": "Antibacterial activity Staphylococcus aureus (MRSA)", "setting": "[2]; 24 h", "value": "3 (MIC100 of 3-10 μg/ml)"}]}, {"smiles": "Cc1[nH]c(-c2cc(C)n(-c3ccc(C(C)C)cc3)c2C)nc1-c1ccccc1", "note": "[Compound 58]", "values": [{"measurement": "MIC", "setting": "[2]; [8]", "value": "20 to 50", "unit": "µg/mL"}, {"measurement": "cytotoxicity cell line H (hepatocytes)", "setting": "[5]", "value": 3}]}, {"smiles": "Cc1nc(-c2ccc(-c3ccc(Cl)cc3C(F)(F)F)o2)[nH]c1-c1ccccc1", "note": "[Compound 32]", "values": [{"measurement": "MIC", "setting": "[2]; [12]", "value": "3 to 10", "unit": "µg/mL"}, {"measurement": "MIC", "setting": "[2]; [8]", "value": "3 to 10", "unit": "µg/mL"}, {"measurement": "MIC", "setting": "[3]", "value": "3 to 10", "unit": "µg/mL"}, {"measurement": "cytotoxicity cell line H (hepatocytes)", "setting": "[5]", "value": 2}, {"measurement": "MIC", "setting": "[6]; [13]", "value": "1 to 3", "unit": "µg/mL"}, {"measurement": "MIC", "setting": "[6]; [10]", "value": "1 to 3", "unit": "µg/mL"}]}]}
